# Reference: patent publication US20090221596A1, “Substtituted aryl oximes” (priority 2006, published 2009)
# What was measured:
# Format in all cases: in vivo
# [1] = tested on: Spodoptera frugiperda; experiment: Spodoptera frugiperda test (spray treatment); conditions: foliar, 168 h, 500 g a. i./ha, 7 d, sprayed maize leaf discs, army worm caterpillars, read-out: % 7 d (activity; 100% = all caterpillars killed)
# Excerpt: An appropriate preparation of active compound is produced by mixing 1 part by weight of active compound with the stated amounts of solvent and emulsifier and diluting the concentrate to the desired concentration using emulsifier-containing water.
# Maize leaf discs (Zea mays) are sprayed with a preparation of active compound at the desired concentration and after they have dried off they are populated with caterpillars of the army worm (Spodoptera frugiperda).
# After the desired time the activity is measured in %. Here 100% means that all of the caterpillars have been killed; 0% means that no caterpillar has been killed.
# [2] = tested on: Aedes Aegypti; experiment: Aedes Aegypti test; conditions: 20 g a. i./ha, third larval stage (L3)
# Protocol: An appropriate preparation of active compound is produced by mixing the active compound with the stated amounts of solvent and diluting the concentrate to the desired concentration with water.
# The Aedsae aegypti larvae (third larval stage, L3) are treated with a preparation of active compound at the desired concentration.
# After the desired time the activity is measured in %. Here 100%, means that all of the Aedsae aegypti have been killed; 0% means that no Aedsae aegypti have been killed, and -1 denotes that no evaluation was possible.
# [3] = tested on: Phaedon cochleariae; experiment: Phaedon test (spray treatment); conditions: 500 g a. i./ha, sprayed Chinese cabbage leaves, mustard beetle larvae
# Excerpt: [table] An appropriate preparation of active compound is produced by mixing 1 part by weight of active compound with the stated amounts of solvent and emulsifier and diluting the concentrate to the desired concentration using emulsifier-containing water. Chinese cabbage leaves (Brassica pekinensis) are sprayed with a preparation of active compound at the desired concentration and after they have dried off they are populated with larvae of the mustard beetle (Phaedon cochleariae). After the desired time the activity is measured in %.
Compound,pest or weed control at 500 g/ha [1] [%],% 2 d (activity; 100% = all Aedes aegypti killed) [2] [%],% 7 d (activity; 100% = all beetle larvae killed) [3] [%]
COc1c(Cl)cc(OCC=C(Cl)Cl)cc1/C(C)=N/OCCCc1ccc(F)cc1 [Example 42],100,,
COc1c(Cl)cc(OCC=C(Cl)Cl)cc1/C(C)=N/OC(C)c1ccccc1 (centres unmarked) [Example 45],83,,
COc1c(Cl)cc(OCC=C(Cl)Cl)cc1/C(C)=N/OCCCCOc1c(Cl)cc(C(F)(F)F)cc1Cl [Example 24],100,,
COc1c(Cl)cc(OCC=C(Cl)Cl)cc1/C(C)=N/OCCCCOc1ccc(C(F)(F)F)cn1 [Example 22],100,,
COc1c(Cl)cc(OCC=C(Cl)Cl)cc1/C(C)=N/OCc1ccc(F)c(Oc2ccccc2)c1 [Example 30],100,,
COc1c(Cl)cc(OCC=C(Cl)Cl)cc1/C(C)=N/OCCc1ccc([N+](=O)[O-])cc1 [Example 39],100,,
COc1c(Cl)cc(OCC=C(Cl)Cl)cc1/C(C)=N/OCc1ccc(Oc2ccc(SC)cc2)cc1 [Example 49],100,,
COc1c(Cl)cc(OCC=C(Cl)Cl)cc1/C(C)=N/OCCCCOc1ncc(C(F)(F)F)cc1Cl [Example 23],100,,
COc1c(Cl)cc(OCC=C(Cl)Cl)cc1/C(C)=N/OCCc1ccc(NC(=O)C2(C)CC2)cc1 [Example 40],100,,
COc1c(Cl)cc(OCC=C(Cl)Cl)cc1/C(C)=N/OCCc1ccc(NC(=O)OC(C)(C)C)cc1 [Example 41],100,,
COc1c(Cl)cc(OCC=C(Cl)Cl)cc1/C(C)=N/OCCOc1ccc(C(F)(F)F)cn1 [Example 21],100,,
COc1c(Cl)cc(OCC=C(Cl)Cl)cc1/C(C)=N/OCc1ccc(OC(F)(F)F)cc1 [Example 29],100,,
"COc1c(Cl)cc(OCC=C(Cl)Cl)cc1C(=NO)C(C)C (racemic) [Example 14, 1-[3-Chloro-5-(3,3-dichloroallyloxy)-2-methoxyphenyl]-2-methylpropan-1-one oxime]",,80,100
